# Assay results published in ChEMBL document CHEMBL3507680, “University of Dundee, Gates Library screen for HepG2 cell viability”.
# Assay: Human HepG2 cell viability assay in 384 well format
# Assay type: toxicity, cell-based
# Parameters: dose 125 nL, time 70.5 hour; concentration not given beside the values
# Details: HepG2 cells, read-out: Inhibition
row,Compound,cytotoxicity at 70.5 h
1,CSc1ccc(CN(CCO)C(=O)CCc2ccc(O)cc2)cc1,-16.6%
2,CCN(CC)C(=O)CCNC(=O)N(C)Cc1ccc(SC)c(OC)c1,-11.2%
3,COc1ccc(CCNC(=O)c2ccc(=O)n(C)c2)c(Cl)c1,-7.56%
4,CC(C)n1nc(O)c2c1NC(=O)CSC2c1cnn(C)c1 (stereo unspecified),-19.6%
5,CCn1ccnc1CN(C)Cc1nc(Cc2ccccc2F)no1,7.48%
6,Cc1nc(N)cc(C2(C)CCCNC2)n1 (stereo unspecified),-5.33%
7,CNC(=O)C1Cc2ccccc2CN1CCC#N (stereo unspecified),4.8%
8,CCc1ccc2c(c1)C(CCNC(=O)Cc1cccc(F)c1)C(=O)N2 (stereo unspecified),-4.81%
9,c1ccc(CN(Cc2cccc3cnccc23)CC2CCCO2)nc1 (stereo unspecified),-7.22%
10,CCOC1COC2(CCN(C(=O)c3cccc(C)n3)CC2)C1 (stereo unspecified),-0.53%
11,NC(=O)c1cncc(N2CCN(Cc3cccc4nsnc34)CC2)n1,-5.47%
12,CN(C)S(=O)(=O)c1ccc(CN2CCCC2c2ccccc2)o1 (stereo unspecified),32.6%
13,COCCNC(=O)[C@H]1C[C@@H]2CCN(Cc3ccncc3)C[C@H]2O1,-9.09%
14,COCCCN(Cc1ccncc1)C(=O)C1COc2ccccc2C1 (stereo unspecified),-14.9%
15,Cc1ccc(C)c2c(O)cc(CNCc3ccc(S(N)(=O)=O)cc3)nc12,-4.39%
16,O=C(NCCn1ccnc1)c1cccc(F)c1,-11.3%
17,COC(C)(C)CC(C)NC(=O)NC1CCN(Cc2ccccn2)CC1 (stereo unspecified),-0.855%
18,CC(C)c1nnc(N2C[C@@H](CN(C)CCO)[C@@H](CO)C2)s1,12.7%
19,CCCn1nc(-c2nc(C3CC3)no2)ccc1=O,5.03%

row,Compound,cytotoxicity at 70.5 h
1,CN(C)CCCn1ccc(-c2cccc(-c3ccccn3)c2)n1,15.8%
2,COc1ccc(N2CCOCC3(CCCN(c4cnccn4)C3)C2)cc1 (stereo unspecified),-1.59%
3,COCCc1noc(-c2cn(CCc3ccccc3)nn2)n1,2.44%
4,Cc1cc(C)n(CC2CN(Cc3nnsc3Cl)CCO2)n1 (stereo unspecified),-13%
5,CCC1COCCN1C(=O)NCc1cccc(-c2cnn(C)c2)c1 (stereo unspecified),-6.22%
6,C[C@H]1C[C@@H]2CCN(Cc3nccs3)C[C@H]2O1,-9.2%
7,Cc1cc(C)c2c(OCC(=O)NC(C)C)nn(C)c2n1,14.7%
8,Cc1cc(C)c(CNC(=O)NCCc2cccnc2)c(=O)[nH]1,-10.1%
9,CCCC(NC(=O)c1cncc(C)c1)c1nnn[nH]1 (stereo unspecified),6.22%
10,CC1CCCN(Cc2ccc(CNC(=O)NCc3ccon3)cc2)C1 (stereo unspecified),2.37%
11,O=C(C1CCC1)N1CCO[C@H]2[C@H](OCCCn3cccn3)CC[C@@H]21,29%
12,CCc1ccc(O)c(C(=O)NC2CCN(S(=O)(=O)CC)CC2)c1,8.84%
13,CCN1CCN(CC(O)c2cc(Cl)ccc2Cl)CC1 (stereo unspecified),-8.52%
14,CN(C)CCNc1ccc(-c2nc(COc3ccccc3)no2)cn1,3.62%
15,CN(C)c1cc(C2CCCNC2)ccn1 (stereo unspecified),4.83%
16,Cc1ccc(CNCc2nnc3n2CCCC3C(F)(F)F)o1 (stereo unspecified),6.51%
17,Cn1cc(-c2nnc3sc(C4CCC4)nn23)cn1,-12.3%
18,O=C(O)[C@H]1C[C@@H](C(=O)NCc2ccncc2)CN(Cc2ccccc2)C1,-1.34%
19,Cc1ccc(SC2CCCC2)c(C(=O)NCc2n[nH]c(=O)[nH]2)c1,-11.2%

row,Compound,cytotoxicity at 70.5 h
1,COc1cncc(-n2ccnc2-c2ccc(C(=O)O)s2)c1,-10%
2,CCN(CC)S(=O)(=O)CCNc1nnc(C(C)C)s1,6.99%
3,CCc1cc(CN2CCC(CCC(=O)Nc3ccccc3Cl)CC2)on1,-0.0329%
4,NC(=O)N1C[C@@H]2CN(C(=O)c3ccco3)C[C@@H]2C1,-7.36%
5,OC(CNc1ncnc2c1CCNCC2)C(F)(F)F (stereo unspecified),-4.22%
6,CC(=O)N1CCN([C@@H]2CCC[C@@H](N(C)C(=O)C3CC3)[C@H]2O)CC1,-1.88%
7,Cc1ccc2c(n1)N(C)CCN(Cc1ccco1)C2,-1.42%
8,CC[C@@]1(O)CCN(c2ncc(Cl)cc2C(F)(F)F)C[C@H]1O,20.8%
9,CCNC(=O)[C@@H]1C[C@H](N)CN1C1CCN(c2ccccc2OC)CC1,-3.8%
10,CCOc1cccc(CNC(=O)NCC(O)c2cccc(F)c2)c1 (stereo unspecified),10.6%
11,CCN1CCN(Cc2ccnc(-c3cccnc3)n2)CC1,-2.52%
12,Cc1cc(SC(C)(C)C)ccc1NC(C)C(=O)NC(N)=O (stereo unspecified),9.69%
13,CC(C)[C@H]1CN(C2Cc3ccccc3C2)C[C@@H]1NS(C)(=O)=O,7.83%
14,c1nc2n(c1CN1CCOCC1)CCN(C1CCOC1)CC2 (stereo unspecified),7.7%
15,COc1c(CNCc2ccccc2CN2CCOCC2)c(C)nn1C,-7.68%
16,c1coc(CN2CCCn3c(nnc3Cn3cccn3)C2)c1,3.11%
17,CSCCc1c(-c2ccccc2)ncn1[C@H]1C[C@@H](C(=O)O)N(C)C1,-13.3%
18,Cc1cccc(CN2CCS(=O)(=O)[C@@H]3CCN(S(C)(=O)=O)CC[C@@H]32)n1,17.2%
